Results taken from patent US20230202981A1, “NOVEL SMALL MOLECULES FOR TARGETED DEGRADATION OF UNTARGETABLE KRAS IN CANCER THERAPY” (Pillai Universal LLC, priority 2020, published 2023).
Where two headings read alike, the source gives them in different places.

Assays:
mitosis = assay: Cell cycle analysis of DNA content and phospho-histone H3B immunofluorescence; assay type: cell-based
Text: (§1) The present invention is aimed to invent powerful, therapeutic small molecules that could target mutant KRAS on its active sites. Here we identified a small molecule, compound I, that binds the GTP/GDP-binding pocket of KRAS. For this purpose we studied a strong correlation of measurement among a larger panel of tumor cell lines expressing KRAS mutation and analyses the potency to inhibit the tumor cell growth activated RAS. […] Therefore, compound I may be considered as a potential KRAS inhibitor for treatment of cancer cells carrying KRAS oncogene.

KRAS = KRAS (Homo sapiens, UniProt P01116); assay: Binding to KRAS in vitro
Text: as §1
From the above biological examples it is clearly inferred that the Compound 1 as a new class of KRAS that selectively targets the GTP/GDP binding pocket. […] Compound 1 to 5-induced hyperactivation of mutant KRAS facilitates apoptotic cell death in mutant KRAS cancer cells. Combining the results with detailed structural analysis, we are able to describe key ligand-receptor interactions that correlate with activity. Thus, showing that our screening techniques were very successful at generating KRAS binders that have effects on signaling in cells. […] Therefore, compound Compound 1 is a promising hit for the development of novel non-covalent KRAS inhibitors. The development of this new class of anticancer drug offers a potentially effective strategy for the treatment of cancer with KRAS mutation and/or mutant KRAS-driven cancer. […]

Chain of KRAS (P01116 1-188 isoform P01116-2): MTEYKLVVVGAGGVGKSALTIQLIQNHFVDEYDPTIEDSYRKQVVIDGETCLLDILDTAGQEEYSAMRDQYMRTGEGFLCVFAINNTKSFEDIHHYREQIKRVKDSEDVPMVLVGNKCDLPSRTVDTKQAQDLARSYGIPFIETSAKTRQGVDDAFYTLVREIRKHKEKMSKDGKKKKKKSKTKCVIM

CCCCc1ncc(C(=O)C2CC=C(C(N)=O)N2)cc1C(=O)OCC (stereo not drawn) [Compound 1]
mitotic arrest (mitosis): induced mitotic arrest | binding affinity to KRAS (KRAS): nanomolar binder | binding affinity to KRAS (KRAS; listed as Compound I): good binding affinity
